Results published in patent US20230338340A1, “Methods of Treating Cystic Fibrosis” (The Trustees of Dartmouth College, priority 2020, published 2023).
Values belong to the compound of their own block, whether it stands above or below them.

Legend:
[1] = test system: CFTR; assay: Apical membrane abundance of CFTR in WT-CFBE cells (biotinylation, immunoblot); assay type: cell-based; conditions: 1 μM
Protocol: Apical membrane CFTR was normalized for CFTR abundance in cell lysate. N=2 (1h and 2 h) and n=3 (4h). Error bar S.E.M. *p<0.05 versus vehicle control (CTRL; 0.03% water).

[2] = test system: CFTR; assay: CFTR activity in F508del HBE primary cells; assay type: cell-based; conditions: 1 μM, 4 hours
[3] = target: T1, Human-Dab2-DH (Homo sapiens, UniProt P98082); assay: Dab2 FP competition assay via HTS; assay type: binding
T1 construct: fused on or other part: N-terminal 10xHis tag with a 3C protease site, cleaved off unless otherwise indicated
T1 sequence (P98082 33-178 limits assumed): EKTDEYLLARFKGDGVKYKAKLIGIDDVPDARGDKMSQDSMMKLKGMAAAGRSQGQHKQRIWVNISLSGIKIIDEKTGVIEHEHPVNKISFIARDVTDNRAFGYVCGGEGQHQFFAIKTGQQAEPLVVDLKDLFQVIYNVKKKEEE
Protocol: (§1) CALP and/or Dab2 inhibition assays were performed in biochemical “mix-and-measure” format in order to evaluate the effects on activation and inhibition of CALP and/or Dab2 by the compounds of the disclosure. Brief assay procedure is provided below. Unless otherwise specified, all of the compounds were obtained from commercial sources.
Dab-2 inhibitors were also identified by FP competition assays via HTS. Human-Dab2-DH, residues 31-191 (Uniprot: P98082), and trDab2-DH (residues 33-178) was subcloned into the pET16b vector via PCR utilizing the restriction enzyme sites of Xhol and BamHI. The construct was designed with a 3C protease cleavage site directly upstream and in-frame with the protein coding sequence. DNA was sequence verified. (0.1 mM) IPTG was used to induce protein expression in E. coli BL21(DE3)RIL cells, after reaching an O.D. of […]. […] Followed by 3C cleavage of the 10×His tag (unless otherwise indicated), and a second nickel affinity column to remove the 3C protease and excess tag. Dab2-DH was dialyzed into FP storage buffer (25 mM Tris pH 8.0, 150 mM NaCl, 0.1 mM TCEP, and 0.02% sodium azide). Fluorescent reporter peptides, TIVR*STA02 (TMR*-[…]) and TMR*STA03 (TMR*-[…]), were purchased commercially with the following sequence where TMR* denotes a N-terminal tetramethylrhodamine group coupled via an aminohexanoic acid linker. An unlabled positive control peptide STA02 ([…]) was also purchased commercially. Inhibitors of Dab2-DH were identified from a variety of sources with various protocols outlined below.
For screens conducted at the Novartis Institutes for BioMedical Research FAST Lab, single-dose HTS assays were performed with libraries comprising ˜52,000 compounds at 20 μM doses. Experiments were conducted as described for screens at the University of Pittsburgh Lab and Drug Discovery Institute, except that Dab2-DH, not trDab2-DH, was used as the protein source.
For screens conducted at the Broad Institute, compound transfers were done using a 384-well pin tool equipped with 100 nL hydrophobic surface coated pins. 100 nL of DMSO (negative control), STA02 (positive control), or library compounds were dispensed into 20 μL of protein (200 nM) and reporter (F*-STA02, 30 nM) mixture with 0.1 mg/ml mouse IgG and 0.5 mM Thesit. Final concentrations in the mixture were DMSO ([…]), STA02 (20 μM), and compounds (18 μM). Plates were incubated for 35-45 minutes before measuring polarization. Compounds were tested in duplicates on two separate plates. Positive and negative controls were included in each individual plate.
For experiments conducted at the University of Pittsburgh Lab and Drug Discovery Institute, single-dose HTS assays were performed with a library containing ˜220,000 compounds. On the day of screening, a master mix of equal parts trDab2-DH (900 nM) and TMP-STA03 (90 nM) was prepared. Compound plates containing assay ready 2 μL aliquots of a 1 mM stock solution in DMSO were thawed, reconstituted in FP buffer to a concentration of 30 μM in 3% DMSO, and five μL transferred to low volume assay plates using a Perkin Elmer MDT. Ten μL of master mix were added by a Microflo bulk liquid dispenser (Biotek, Winooski, VT) and processed as described in the general protocol above. Each plate contained 32 wells of positive (Dab2-DH+probe+DMSO) and negative (Dab2-DH+probe +10 μM STA03) controls. Plates were read at 1.5-h and 4-h on the Envision multilabel reader.

[4] = test system: HBE primary cells; assay: Airway surface liquid (ASL) volume after forskolin stimulus in HBE primary cells; assay type: cell-based; conditions: 20 μM, basolateral, 4 hr
Protocol: A functional test for CFTR activity is the determination of airway surface liquid (ASL) height, reflecting ion transport and associated osmotic recruitment of water, following activation of CFTR ion transport via forskolin stimulation. This functional test is directly related to one of the hallmarks of CF: the viscosity of airway mucus due to lack of anion transport.
Example 6 or Example 9 (20 μM each) or DMSO (CTR; 0.02%; […]) was added to the basolateral medium for 4 hr. Subsequently, forskolin (20 μM) and IBMX (1 mM) was added to the apical and basolateral medium. The test compounds were added for 30 min directly to the basolateral medium, and they were added in 10 μL medium to the apical side. The 10 μL volume was subtracted from the ASL volume (N=2-4/group).

[5] = target: T2, CAL PDZ (Homo sapiens, UniProt Q9HD26); assay: CALP fluorescence polarization (FP) competition assay, HTS format with dose-response validation; assay type: binding; design: Inhibitory activity CALP at 100 μM: unit not given here
T2 construct: Recombinant CAL PDZ was expressed and purified in E. coli as previously described; made in house; host or cells: E. coli
Protocol: as §1
CALP inhibitors were identified by fluorescence polarization (FP) competition assays in high-throughput screening (HTS) format. Recombinant CAL PDZ was expressed and purified in E. coli as previously described (Amacher et al., Acta Cyst. (2011) F67, 600-603), and dialyzed into FP storage buffer (25 mM Tris pH 8.5, 150 mM NaCl, 0.1 mM TCEP, and 0.02% sodium azide). A fluorescent reporter peptide, NPG32, was purchased commercially with the following sequence: F*-[…] (F* denotes a N-terminal fluorescein group coupled via an aminohexanoic acid linker). Initial single-dose HTS was performed with libraries comprising ˜52,000 compounds (FAST Lab—Novartis Institutes for BioMedical Research). First, 25 nL of 5 mM small-molecule was transferred to 1536-well Grenier plates. 3 μL of 3.708 μM CALP in FP buffer (FP storage buffer supplemented with […]) was added, and plates were incubated for 10 min. Next, 3 μL of 60 nM NPG32 (in FP buffer) was added. Final reaction volumes were 6 μL and contained 1.854 μM CALP, 30 nM NPG32, and 20.83 μM small-molecule. […] Plates were incubated for 30 minutes at room temperature and anisotropy was measured (480 nm excitation wavelength and 535 nm emission wavelength). […] Compounds were validated in triplicate using 8-point dilution series in half-log increments with two orthogonal assays: FRET and TMR-based FP assay. For the FRET assay, a cerulean-CALP fusion protein (Cer-CALP) was expressed and purified as previously described (Zhao et al., 2018). A fluorescent reporter peptide, PRC34, was purchased commercially with the following sequence: TMR*-[…] (TMR* denotes a N-terminal tetramethylrhodamine group coupled via an aminohexanoic acid linker). First, 40 nL of compound was transferred to the plates. 5 μL of 16.632 μM Cer-CALP was added, and plates were incubated for 30 min. Next, 5 μL of 16.632 μM PRC34 was added, and plates were incubated for 30 min. Final reaction volumes were 10 μL and contained 8.316 μM CALP, 8.316 μM […], and variable concentrations of small-molecule. Negative controls contained equivalent amounts of DMSO (0.4%), while positive controls contained 100 μM NPG30 (sequence: […]). Plates were incubated for 30 min, and emission at 475 nm and 575 nm was measured following excitation at 430 nm. TMR FP assays were conducted as described for the FITC-based assay with the following exceptions: TMR was used as the reporter peptide, the final CALP concentration was 11.952 μM, and the positive control used was 100 μM NPG30.

[6] = target: T3, CAL PDZC319A (Homo sapiens, UniProt Q9HD26, C327A); assay: MALDI-TOF detection of adduct on point mutant CAL PDZ C319A; assay type: binding; conditions: only cysteine mutated to alanine
T3 construct: point mutant CAL PDZC319A (where the only cysteine residue is mutated to alanine)
Protocol: (§2) Following incubation of 50 μM protein with 75 μM of example 8, the molecular weight of the samples was determined by MALDI (unlabeled CALP molecular weight: 9464±15 Da; labeled CALP molecular weight: 9623±9 Da).

[7] = test system: wild-type CFTR; assay: Cell-surface expression of wild-type CFTR in WT-CFBE cells; assay type: cell-based; conditions: 1 μM and 5 μM, no correctors or potentiators
Protocol: The effect of example 8 on cell-surface expression of wild-type CFTR was also tested in the absence of correctors or potentiators. Two doses (1 μM and 5 μM) of example 8 were applied to wild-type cystic fibrosis bronchial epithelial (WT-CFBE) cells and the abundance of WT-CFTR cells in the plasma membrane was quantified.

[8] = target: T2, CAL PDZ; assay: FP assay of peptide binding by CAL PDZ pre-labeled with compound (apparent KD)
Source text: Next, to probe the biochemical effect example 8 exerts on CAL PDZ-peptide binding, CAL PDZ was pre-labeled with example 8 and performed fluorescence polarization (FP) assays to determine apparent KD values for both unlabeled and labeled CAL PDZ.

[9] = target: T2, CAL PDZ; assay: MALDI-TOF detection of covalent modification of CAL PDZ; assay type: binding
Protocol: as §2

[10] = target: T4, Dab2-DH (Homo sapiens, UniProt P98082); assay: Dab2-DH FP competitive displacement experiments (F*-STA02 reporter); assay type: binding; conditions: text b140
T4 construct: Human-Dab2-DH, residues 31-191 (Uniprot: P98082); 10xHis (3C protease site) (N, cleaved yes); made in house; host or cells: E. coli BL21(DE3)RIL
T4 sequence (P98082 31-191): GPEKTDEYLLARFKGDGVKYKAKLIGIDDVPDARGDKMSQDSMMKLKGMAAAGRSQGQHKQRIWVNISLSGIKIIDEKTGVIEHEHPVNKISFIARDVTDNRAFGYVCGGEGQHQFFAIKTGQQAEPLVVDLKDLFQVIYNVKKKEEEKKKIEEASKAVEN

[11] = with VX-770, C-18, CFFT-002, Fsk and IBMX

SMILES: C=C1c2cccc(O)c2C(O)=C2C(=O)[C@]3(O)C(O)=C(C(N)=O)C(=O)[C@@H](N(C)C)[C@@H]3[C@@H](O)[C@H]12 [Example 10, (4S,4aR,5S,5aR,12aR)-4-(dimethylamino)-1,5,10,11,12a-pentahydroxy-6-methylene-3,12-dioxo-3,4,4a,5,5a,6,12,12a-octahydrotetracene-2-carboxamide]
Abundance of CFTR (apical membrane) [1]: increase in the abundance of CFTR
CFTR activity [2, 11]: significant enhancement of CFTR activity
Channel activity relative to absence of C-18 and CFFT-002 [2, 11]: approximately 2 fold
CFTR activity ([2]; with VX-770, Fsk and IBMX): significant enhancement of CFTR activity

SMILES: COc1cc(O)c(C(=O)O)c(-c2cc(O)c(O)cc2C)c1 [Example 9, 3,4′,5′-trihydroxy-5-methoxy-2′-methyl-[1,1′-biphenyl]-2-carboxylic acid]
IC50 [3]: 37 nM
ASL volume generated in response to forskolin stimulus [4]: increased the ASL volume

Inhibitory activity CALP at 100 μM ([5]; at 100 μM): −72.16
IC50 ([5]; read-out: Inhibitory activity CALP IC50): 4570 nM
Adduct on CAL PDZ C319A [6]: no adduct is detected
Attenuation in peptide binding vs unlabeled CAL PDZ [8]: ~4 fold
Adduct size / mass shift observed on CAL PDZ [9]: ~160 Da
Covalent modification of CAL PDZ [9]: covalently modify CAL PDZ
SMILES: O=c1[nH]c2ccc(S(=O)(=O)Nc3ccc(O)c4ccccc34)cc2[nH]1 [Example 8, N-(4-hydroxynaphthalen-1-yl)-2-oxo-2,3-dihydro-1H-benzo[d]imidazole-5-sulfonamide]
Surface levels of WT-CFTR [7]: reduce surface levels of WT-CFTR

SMILES: CN1CCc2cccc3c2[C@@H]1Cc1ccc(O)c(O)c1-3.Cl [Example 12, (S)-6-methyl-5,6,6a,7-tetrahydro-4H-dibenzo[de,g]quinoline-10,11-diol hydrochloride]
Inhibitory activity Dab2 at Cmax ([3]; at Cmax, cells printed with %): ~−95%
Ki [10]: 1610 ± 740 nM
